Test system: A431 (EGFR wild type) cells
Assay: Anti-proliferation activity test against A431 cells
Format: cell-based
Settings: Homo sapiens, A-431; A431, Cell-Titer Glo, 72 hours
Procedure: (2) Anti-Proliferation Activity Test of the Compound Against H1975 Cells and IC50 Test of Anti-Proliferation Activity Against A431 Cells
RPMI1640 medium, FBS fetal bovine serum, trypsin-EDTA, were all purchased from Giboco. DPBS was purchased from Corning, penicillin/streptomycin solution was purchased from Hyclone, and Cell-Titer Glo reagent was purchased from Promega (1kit, Cat. No. G7571). Plate reading instrument: Envision (PerkinElmer).
384-well plates in columns 1, 2, and 24 were added with 45 μL of medium, and the cell suspension was dispensed with Multi-drop at 45 μL per well (1000 cells) and incubated overnight in an incubator. The compound was added to the source plate according to the Echo dispensing requirements, the compound in the source plate was added to the inter plate and diluted to an intermediate concentration, then the compound in the source plate and the inter plate was added to the cell plate, and the cells were continued to be incubated in a incubator for 72 hours. After 72 hours, Cell-Titer Glo reagent and cells were removed and equilibrated at room temperature for 30 min. 25 μL of Cell-Titer Glo reagent was dispensed into 384-well plates with Multi-drop, the cell plate was vibrated at medium speed for 3 min, centrifuged at 1000 rpm for 2 min, and stood for 10 min. The plate was read by Envision (Luminescence). […]

Structure (SMILES): C=CC(=O)Nc1cc(Nc2ncc(C(=O)OC(C)C)c(-c3cn(OC)c4ccccc34)n2)c(OC)cc1N(C)CCN(C)C.CS(=O)(=O)O [Compound 1]
- IC50: 335 nM

— US11530196B2, “Pyrimidine compound acting on EGFR and ERBB2” (CHINA RESOURCES PHARMACEUTICAL HOLDINGS COMPANY LIMITED, priority 2019, dated 2022)
